Assay results: patent US20090312306A1, “TETRAHYDRO-5H-PYRIDO[2,3-D]AZEPINES AS 5-HT2C LIGANDS” (priority 2006, published 2009)

These compounds were tested against h5-HT2c (vsv) (Homo sapiens, UniProt P28335, I156V/I160V/N158S) (assay: cell-based).
Chain of h5-HT2c (vsv) (P28335 33-458 I156V/N158S/I160V limits assumed): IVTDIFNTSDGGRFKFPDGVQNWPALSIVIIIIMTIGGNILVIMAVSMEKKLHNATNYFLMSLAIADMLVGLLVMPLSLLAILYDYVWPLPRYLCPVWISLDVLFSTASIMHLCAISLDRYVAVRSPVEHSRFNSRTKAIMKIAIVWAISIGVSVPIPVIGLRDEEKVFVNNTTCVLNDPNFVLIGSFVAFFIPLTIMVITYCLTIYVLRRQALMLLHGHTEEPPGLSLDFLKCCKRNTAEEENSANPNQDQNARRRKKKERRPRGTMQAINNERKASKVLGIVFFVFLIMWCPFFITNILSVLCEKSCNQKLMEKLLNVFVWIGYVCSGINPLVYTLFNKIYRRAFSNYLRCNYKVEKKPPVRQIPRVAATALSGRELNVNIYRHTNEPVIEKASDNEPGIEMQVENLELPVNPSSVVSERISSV

| SMILES | EC50 [nM] |
| --- | --- |
| C=C(C)c1ccc2c(n1)CCNCC2 | 79.1 |
| CN(C)c1ccc2c(n1)CCNCC2 | 213 |
| CC(C)c1ccc2c(n1)C(C)CNCC2 (stereo not drawn) | 295 |
| CCN(C)c1ccc2c(n1)CCNCC2 | 18 |
| CCN(CC)c1ccc2c(n1)CCNCC2 | 77.3 |
| c1cc2c(nc1N1CCCCC1)CCNCC2 | 10.6 |
| c1cc2c(nc1N1CCOCC1)CCNCC2 | 63.9 |
| COc1nc2c(cc1Br)CCNCC2 | 64.1 |
| c1cc2c(nc1N1CCCCCC1)CCNCC2 | 10.2 |
| CC(C)(C)c1ccc2c(n1)CCNCC2 | 106 |
| c1cc2c(nc1N1CCCNCC1)CCNCC2 | 262 |
| CCN(C)c1nc2c(cc1Br)CCNCC2 | 100 |
| Brc1cc2c(nc1N1CCCCC1)CCNCC2 | 192 |
| CCN(C)c1ccc2c(n1)C(C)CNCC2 (stereo not drawn) | 29.2 |
| CC1CNCCc2ccc(N3CCCCC3)nc21 (stereo not drawn) | 13.1 |
| CC1CNCCc2ccc(N3CCOCC3)nc21 (stereo not drawn) | 47.7 |
| c1cc2c(nc1N1CCC3(CC1)OCCO3)CCNCC2 | 290 |
| CC(C)C1CNCCc2ccc(N3CCCCC3)nc21 (stereo not drawn) | 65.4 |
| CC(C)C1CNCCc2ccc(N3CCCCCC3)nc21 (stereo not drawn) | 139 |
| CC1CNCCc2ccc(N3CCCCCC3)nc21 (stereo not drawn) | 6.2 |
| O=C1CCN(c2ccc3c(n2)CCNCC3)CC1 | 299 |

| SMILES | EC50 [nM] |
| --- | --- |
| CC(C)N(C)c1ccc2c(n1)CCNCC2 | 85.4 |
| FC1(F)CCN(c2ccc3c(n2)CCNCC3)CC1 | 11.4 |
| FC1CCN(c2ccc3c(n2)CCNCC3)CC1 | 7.9 |
| c1cc2c(nc1N1CCSCC1)CCNCC2 | 2.3 |
| c1cc2c(nc1N1CCCOCC1)CCNCC2 | 10.5 |
| Clc1cc2c(nc1N1CCCCC1)CCNCC2 | 74.2 |
| Clc1cc2c(nc1N1CCOCC1)CCNCC2 | 176 |
| CCC1CNCCc2ccc(N(C)CC)nc21 (stereo not drawn) | 35.9 |
| CCC1CNCCc2ccc(N3CCCCC3)nc21 (stereo not drawn) | 16.4 |
| CCC1CNCCc2ccc(N3CCOCC3)nc21 (stereo not drawn) | 101 |
| CCN(C)c1ccc2c(n1)[C@H](C)CNCC2 | 8.3 |
| C[C@@H]1CNCCc2ccc(N3CCCCC3)nc21 | 2.1 |
| C[C@@H]1CNCCc2ccc(N3CCOCC3)nc21 | 58.1 |
| c1cc2c(nc1N1C3CCCC1CC3)CCNCC2 | 138 |
| FC1(F)CCCN(c2ccc3c(n2)CCNCC3)CC1 | 24 |
| [O-][S+]1CCN(c2ccc3c(n2)CCNCC3)CC1 | 5.1 |
| CC1CNCCc2ccc(N3CCC(F)(F)CC3)nc21 (stereo not drawn) | 29.4 |
| CC1CNCCc2ccc(N3CCC(F)CC3)nc21 (stereo not drawn) | 13.6 |
| CC1CNCCc2ccc(N3CCCOCC3)nc21 (stereo not drawn) | 21.7 |
| FC1CCN(c2nc3c(cc2Cl)CCNCC3)CC1 | 95.8 |
| Clc1cc2c(nc1N1CCCOCC1)CCNCC2 | 67.8 |
